Results from patent US8541243B2, “Method for assessment of folate phenotypes, disease risk and response to therapy” (The Trustees of the University of Pennsylvania, priority 2008, dated 2013).

Legend:
[1] = Stability of folates under the acidic/basic conditions of sample work-up; format: physicochemical
Method: (§1) An aliquot of the resulting solution (50 μL) was then analyzed by LC-MRM/MS.
5-FTHF and 10-FTHF undergo dehydration to 5,10-MTHF under acidic conditions in a pH-dependent manner (FIG. 1). In contrast, under neutral or alkaline pH conditions, 5,10-MTHF is converted into 10-FTHF, which then slowly interconverts with 5-FTHF. These different forms of folate are present in RBCs primarily in polyglutamated forms. […] This made it difficult to reliably quantify the individual amounts of 5-FTHF, 10-FTHF, and 5,10-MTHF in the RBCs. Conversion of 5-FTHF and 10-FTHF into 5,10-MTHF proceeded quantitatively at pH 1.5. As a result, it was possible to accurately quantify the pool of folate precursors available for conversion into 5,10-METHF simply by acidifying the RBC extract (FIG. 1). […] They were then acidified to pH 1.5 with 1M HCl ready for analysis of the 5-METHF precursors as 5,10-MTHF (FIG. 1). The [^13C5]-5-FTHF internal standard was quantitatively converted into [^13C5]-5,10-MTHF, which made it possible to accurately quantify the amount of unlabeled 5-FTHF and 10-FTHF, as well as any 5,10-MTHF that had been present in the sample originally. […] However, it is so rapidly utilized in cellular processes by enzymes such as MTHFR, serine hydroxymethyltransferase, and thymidylate synthase (FIG. 6) that it is unlikely to be present in significant quantities.

RBC folate = RBC folate derivatives (LC-MRM/MS) before and after low dose MTX treatment of arthritis patients; format: in vivo, human; settings: ratio, 24 wk of MTX, Caucasians, 115 pairs
Method: Eight calibration standards were prepared in the range 4.5 to 900 nmol/L in 1% ascorbic acid and 10 mM 2-mercaptoethanol (to prevent oxidation). To 500 μL of whole blood (1:10 diluted with 1% ascorbic acid) was added 20 μL of internal standard solution (150 pg/μL each of [^13C5]-FA, [^13C5]-THF, [^13C5]-5-MTHF, and [^13C5]-5-FTHF). For hydrolysis of folylpolyglutamates, 1N sodium hydroxide (6 μL) was added to each tube to adjust the pH to 5.0 and the samples were mixed immediately. In selected experiments, pteroylhepta-γ-L-glutamic acid (5 ng) was added to replicate […] RBC preparations from five different subjects in order to monitor the efficiency of folylpolyglutamate hydrolysis. […]
as §1
RBC folate concentrations were calculated according to the method of Lamers et al.(2006, Am. J. Clin. Nutr. 84(1):156-61): RBC folate={(whole blood folate×100)−[plasma folate×(100−hematocrit)]}/hematocrit.
Serum MCP-1 levels were measured using a human MCP-1 ELISA kit (BD Biosciences) according to the manufacturer's instructions. Total homocysteine (tHcy) and both plasma and red blood cell (RBC) folate derivatives were measured using stable isotope dilution liquid chromatography, multiple reaction monitoring, mass spectrometry (LC/MRM/MS) as described elsewhere herein. […]

plasma folate = assay: Plasma folates (LC-MRM/MS) before and after low dose MTX treatment of arthritis patients; format: in vivo, human; settings: 24 wk of MTX, Caucasians, 119 pairs
Method: To each plasma sample (300 μL) was added water (200 μL) containing 1% ascorbic acid and 10 mM 2-mercaptoethanol. After the addition of 20 μL internal standard solution (150 pg/μL each of [^13C5]-FA, [^13C5]-THF, [^13C5]-5-MTHF, and [^13C5]-5-FTHF) the samples were thoroughly mixed. Water (1 mL) containing 1% ascorbic acid and 1% methanol was added prior to purification using SPE columns.
The following experiments were designed to assess the phenotypic changes elicited by low dose methotrexate (MTX) treatment. MTX has been widely used as the anti-inflammatory and immunomodulatory agent for the treatment of patients with rheumatoid arthritis and other inflammatory disorders by weekly low-dose (7.5-25 mg).
This indicates a quantitative and qualitative modification of folate phenotype (even though folic acid supplements were prescribed along with the MTX) that results in elevated MCP-1 concentrations (p<0.0001).

Stability under both acidic and basic conditions [1] | SMILES | RBC (5,10MT/5MTH) (mean ± SD) (RBC folate; baseline 0.026 ± 0.095) | RBC(THF/5MTH) (mean ± SD) (RBC folate; baseline 0.118 ± 0.387) | Plasma FA (mean ± SD) (plasma folate; baseline 7.10 ± 26.62, folic acid supplements prescribed along with MTX) | Plasma 5MTH (mean ± SD) (plasma folate; baseline 53.14 ± 31.14)
extremely unstable | Nc1nc2c(c(=O)[nH]1)N1CN(c3ccc(C(=O)N[C@@H](CCC(=O)O)C(=O)O)cc3)CC1CN2 (some centres unmarked) [5,10-METHF, 5,10-methylenetetrahydrofolic acid] |  |  |  | 
 | CN(Cc1cnc2nc(N)nc(N)c2n1)c1ccc(C(=O)N[C@@H](CCC(=O)O)C(=O)O)cc1 [MTX, methotrexate] | 0.051 ± 0.241 | 0.175 ± 0.757 | 36.20 ± 63.60 | 39.90 ± 31.51
